Here are results for 70 compounds from EPA's aquatic toxicity sets.

Each structure is given as a SMILES string.

The data set deals with Tetrahymena pyriformis. The experiment in a line: 48 h IGC50 (-log10 mol/L); higher = more toxic.
Regarding `C#CCC(O)CC` (stereo not given), the “48 h IGC50 (-log10 mol/L)” value is 1.6. With `O=[N+]([O-])/C=C/c1ccco1` the figure was 5.04; with `O=[N+]([O-])c1c(Cl)ncnc1Cl`, 5.12. With `Nc1cc([N+](=O)[O-])ccc1Cl`, the “48 h IGC50 (-log10 mol/L)” value came out at 3.6. Turning to `CCN=C=S`, the “48 h IGC50 (-log10 mol/L)” value was 4.63. With `C=CS(=O)c1ccccc1` (stereo not given), the “48 h IGC50 (-log10 mol/L)” value stood at 3.16. Turning to `Cc1ccncc1C`, the “48 h IGC50 (-log10 mol/L)” value amounted to 2.5.

As for `O=C(O)CCCCCBr`, the “48 h IGC50 (-log10 mol/L)” value worked out at 3.03. As for `CCCC(CO)CCC`, the “48 h IGC50 (-log10 mol/L)” value came out at 3.13. With `Cc1c(C)c(O)c(C)c(C)c1O` the figure was 4.28; with `O=Cc1ccsc1`, 3.4.

For the compound `Nc1ccccc1I`, the “48 h IGC50 (-log10 mol/L)” value was 3.35. With `OCCOc1cccc(O)c1` the figure was 2.13; with `OCCCCCl`, 2.24; with `O=[N+]([O-])c1cc(I)c(O)c(I)c1`, 4.81. As to `C#CC(O)C(C)C` (stereo not given), the “48 h IGC50 (-log10 mol/L)” value was 2.97. In the case of `CCCCNC(=S)NCCCC` it was 3.86; in that of `Nc1c([N+](=O)[O-])cccc1[N+](=O)[O-]`, 3.84. In the case of `O=Cc1ccc(Cl)c([N+](=O)[O-])c1` it was 4.19; in that of `OC(CBr)CBr`, 3.57; in that of `CCNc1ccccc1`, 3.07. In the case of `CC(C)(C)c1cc(O)cc(C(C)(C)C)c1`, the “48 h IGC50 (-log10 mol/L)” value was 4.64. With `Cc1cc(C)c(C)c(O)c1` the figure was 3.36; with `COc1cccc(C#N)c1`, 3.01. Turning to `Cc1c(O)ccc(O)c1C`, the “48 h IGC50 (-log10 mol/L)” value was determined as 4.41. Regarding `COC(=O)CCC(=O)OC`, the “48 h IGC50 (-log10 mol/L)” value turned out to be 1.94. In the case of `CCCCNC`, the “48 h IGC50 (-log10 mol/L)” value amounted to 2.32. With `O=[N+]([O-])c1ccc(Br)cc1` the figure was 3.38.

Turning to `CCCCCC#CC(=O)OCC`, the “48 h IGC50 (-log10 mol/L)” value came to 4.24. `CCCCCC#CC=O`: the “48 h IGC50 (-log10 mol/L)” value was determined as 4.72.

Turning to `CCCCCCC(Br)C(=O)OCC` (stereo not given), the “48 h IGC50 (-log10 mol/L)” value was 4.5. In the case of `Nc1ccc(O)c(N)c1` it was 3.13. `COC(=O)c1cccc(O)c1`: the “48 h IGC50 (-log10 mol/L)” value came to 2.95.

Take `CCCCCCCCC(O)CO` (stereo not given): the “48 h IGC50 (-log10 mol/L)” value is 3.76. With `C#CCOC(=O)C=C` the figure was 4.06; with `COC(=O)CCBr`, 4.03; with `CC(C)CCBr`, 3.25. As for `C#CC(O)CCCC` (stereo not given), the “48 h IGC50 (-log10 mol/L)” value is 2.73. Turning to `O=C(O)c1cc(Cl)ccc1Cl`, the “48 h IGC50 (-log10 mol/L)” value worked out at 2.54.

Turning to `N#CC(C#N)=Cc1ccco1`, the “48 h IGC50 (-log10 mol/L)” value came to 3.94. With `CCOC(=O)CCBr` the figure was 3.13; with `CCCCCCCCCCO`, 4.33; with `Fc1cc(F)c(F)nc1F`, 2.39.

Take `O=C(CBr)c1cc2ccccc2oc1=O`: the “48 h IGC50 (-log10 mol/L)” value was determined as 5.66. With `Cc1cnccn1` the figure was 1.91; with `C=CCOC(=O)CCCCCCCCC`, 3.48; with `N#CCCCc1ccccc1`, 3.15. With `CC#CCO`, the “48 h IGC50 (-log10 mol/L)” value worked out at 2.13. In the case of `OCCCBr`, the “48 h IGC50 (-log10 mol/L)” value was found to be 2.07. Take `O=Cc1cccc(Cl)c1`: the “48 h IGC50 (-log10 mol/L)” value came to 3.41.

With `N#CCCc1ccccc1`, the “48 h IGC50 (-log10 mol/L)” value turned out to be 2.84.

In the case of `C/C(=N\O)C(=O)c1ccccc1`, the “48 h IGC50 (-log10 mol/L)” value was 2.96.

For `O=C(c1ccccc1)c1cccc(Cl)c1`, the “48 h IGC50 (-log10 mol/L)” value amounted to 4.55. `CCCCCC(C)O` (stereo not given): the “48 h IGC50 (-log10 mol/L)” value was 2.53.

With `CC(C)(O)c1ccccc1`, the “48 h IGC50 (-log10 mol/L)” value was found to be 2.43.

As for `CC(=O)c1ccn(C)c1`, the “48 h IGC50 (-log10 mol/L)” value came out at 2. As for `O=C(c1ccccc1)c1ccc(Br)cc1`, the “48 h IGC50 (-log10 mol/L)” value was 4.26.

As for `COc1ccc(C=O)c(Cl)c1O`, the “48 h IGC50 (-log10 mol/L)” value was 3.2. As to `CC(C)(C)c1cccc(O)c1`, the “48 h IGC50 (-log10 mol/L)” value amounted to 3.74.

Turning to `NC(=O)CBr`, the “48 h IGC50 (-log10 mol/L)” value is 4.52. `CC/C=C\CO`: the “48 h IGC50 (-log10 mol/L)” value came out at 1.9.

For `CCCCOC(N)=O`, the “48 h IGC50 (-log10 mol/L)” value is 2.03. As to `CCCC(=O)CCC`, the “48 h IGC50 (-log10 mol/L)” value was determined as 2.33. For the compound `Nc1cc(Cl)c([N+](=O)[O-])cc1O`, the “48 h IGC50 (-log10 mol/L)” value is 4.17. With `N#CCc1ccc(Cl)cc1` the figure was 3.66.

Take `O=Cc1cc(Cl)cc(Cl)c1Cl`: the “48 h IGC50 (-log10 mol/L)” value was 4.72. As for `O=[N+]([O-])c1cc(Cl)ccc1O`, the “48 h IGC50 (-log10 mol/L)” value was 5.12.

For the compound `CCC[N+](=O)[O-]`, the “48 h IGC50 (-log10 mol/L)” value was determined as 2.01. On to `C=CC(=O)OCc1ccccc1`, for which the “48 h IGC50 (-log10 mol/L)” value came out at 4.35. In the case of `O=[N+]([O-])c1ccccc1-c1ccccc1`, the “48 h IGC50 (-log10 mol/L)” value was 4.3.
